pIC50: −log10 of the molar value. Like-named read-outs stand apart in the source and are kept apart here.
Experiments:
MRSA HEMSA 5 = experiment: Oxacillin MIC reduction (adjuvant) microdilution assay; assay type: cell-based, Staphylococcus aureus; settings: for Activity Gain [A]: MIC(OXA)/MIC(OXA+Cpd), compound 0.5 mM, adjuvant activity if A ≥ 4
Experimental: (§1) Since the lack of direct antibacterial activity of the obtained azetidinones was observed, all isomers trans and cis were investigated on their “adjuvant” properties, i.e., an ability to enhance the effectiveness of antibiotics against S. aureus strains. Thus, the compounds were tested in combination with the known β-lactam antibiotic, oxacillin, in the microdilution assays. The ability of the tested azetidinones to reduce minimum inhibitory concentration (MIC) of oxacillin against both, the referenced and the resistant S. aureus strains, was assessed.
(§2) The in-vitro antibacterial property and the capacity of tested compounds to increase the efficacy of antibiotics were evaluated in two Staphylococcus aureus strains, i.e., the reference clonal complex 5 (CC5) methicillin-susceptible (MSSA) strain ATCC 25923, and the methicillin-resistant (MRSA) extensively drug-resistant (XDR) clinical isolate HEMSA-5 [46].
(§3) In order to assess the increase of antibiotic efficacy, the assays were conducted by determining if/to what extent the investigated compounds reduce MICs of oxacillin by means of a serial dilution broth microplate method, in accordance with the CLSI requirements. The concentrations of compounds used in the MICs reduction assay were no greater than 1/4 of their respective MICs to ensure that cell viability was not affected by the intrinsic antibacterial activity of the molecules. Serial two-fold dilutions of oxacillin (Sigma-Aldrich; St. Louis, MI, USA, cat. no. 28221), were prepared in […] of the Mueller–Hinton broth (Merck; Darmstadt, Germany, cat. no. 1102930500). Suitable concentrations of the compounds (total volume […]) were then added. Bacterial suspensions were diluted to OD ¼ 0.5. The resulting suspensions were then diluted 1:100 and added in the volume of […] into the oxacillin serial dilutions with the compounds. The results were read after 20-h incubation at 37 °C.
(§4) The ability of compounds to improve antibiotic efficacy was expressed as the activity gain [A] parameter calculated according to the formula given in Figure 10.
(§5) Figure 10 Activity gain. MICAnt corresponds to the MIC of oxacillin in the absence of a compound tested and MICAnt + Comp refers to the MIC of oxacillin paired with a compound tested.

S. aureus ATCC 25923 = experiment: as above; assay type: cell-based, Staphylococcus aureus; settings: for Activity Gain [A]: MIC(OXA)/MIC(OXA+Cpd), compound 0.5 mM, adjuvant activity if A ≥ 4
Experimental: as §1, §2, §3, §4, §5

[1] = test system: DND-41 (acute lymphoblastic leukemia); experiment: Cytostatic activity (cell proliferation); assay type: cell-based
Experimental: (§6) The 50% cytostatic inhibitory concentration (IC50) causing a 50% decrease in cell proliferation was determined for all obtained compounds toward 9 cancerous cell lines, i.e.,: Capan-1 (pancreatic adenocarcinoma), Hap1 (chronic myeloid leukemia), HCT-116 (colorectal carcinoma), NCI-H460 (lung carcinoma), DND-41 (acute lymphoblastic leukemia), HL-60 (acute myeloid leukemia), K-562 (chronic myeloid leukemia), MM.1S (multiple myeloma), Z-138 non-Hodgkin lymphoma), as well as normal retina (non-cancerous) cells (hTERT RPE-1). Docetaxel, etoposide and stauroporine were used as the reference compounds.
(§7) All assays were performed in 96-well microtiter plates. To each well was added (5–7.5) × 10^4 tumor cells and a given amount of the tested compound. The cells were allowed to proliferate at 37 °C in a humidified, CO2-controlled atmosphere. At the end of the incubation period, the cells were counted in a Coulter counter. The IC50 (50% inhibitory concentration) was defined as the concentration of the compound that inhibited cell proliferation by 50%.

[2] = test system: HCT-116 (colorectal carcinoma); experiment: Cytostatic activity (cell proliferation); assay type: cell-based
Experimental: as §6, §7

[3] = test system: Hap1 (chronic myeloid leukemia); experiment: Cytostatic activity (cell proliferation); assay type: cell-based
Experimental: as §6, §7

[4] = test system: NCI-H460 (lung carcinoma); experiment: Cytostatic activity (cell proliferation); assay type: cell-based
Experimental: as §6, §7

[5] = test system: hTERT RPE-1 normal retina (non-cancerous) cells; experiment: Cytostatic activity (cell proliferation); assay type: cell-based
Experimental: as §6, §7

[6] = test system: Capan-1 (pancreatic adenocarcinoma); experiment: Cytostatic activity (cell proliferation); assay type: cell-based; settings: Homo sapiens, CAPAN-1
Experimental: The 50% cytostatic inhibitory concentration (IC50) causing a 50% decrease in cell proliferation was determined for all obtained compounds toward 9 cancerous cell lines, i.e.,: Capan-1 (pancreatic adenocarcinoma), Hap1 (chronic myeloid leukemia), HCT-116 (colorectal carcinoma), NCI-H460 (lung carcinoma), DND-41 (acute lymphoblastic leukemia), HL-60 (acute myeloid leukemia), K-562 (chronic myeloid leukemia), MM.1S (multiple myeloma), Z-138 non-Hodgkin lymphoma), as well as normal retina (non-cancerous) cells (hTERT RPE-1).
All assays were performed in 96-well microtiter plates. To each well was added (5–7.5) × 10^4 tumor cells and a given amount of the tested compound. The cells were allowed to proliferate at 37 °C in a humidified, CO2-controlled atmosphere. At the end of the incubation period, the cells were counted in a Coulter counter.

SMILES	MIC (MRSA HEMSA 5; Staphylococcus aureus, oxacillin alone, read-out: OXA MIC)	MIC (S. aureus ATCC 25923; Staphylococcus aureus, ATCC25923, oxacillin alone, read-out: OXA MIC)	Activity Gain [A] (MRSA HEMSA 5)	Activity Gain [A] (S. aureus ATCC 25923)	pIC50 ([1]; DND41)	pIC50 ([2]; Homo sapiens, HCT-116)	pIC50 ([3]; Homo sapiens, HAP1)	pIC50 ([4]; Homo sapiens, NCI-H460)	pIC50 ([5]; hTERT-RPE1)	pIC50 [6]	pIC50 [1]	pIC50 [2]	pIC50 [3]	pIC50 [4]	pIC50 [5]
Cc1onc(-c2ccccc2)c1C(=O)N[C@@H]1C(=O)N2[C@@H]1SC(C)(C)[C@@H]2C(=O)O [oxacillin, reference compound]	512 µg/mL	0.5 µg/mL	–	–	–	–	–	–	–	–	–	–	–	–	–
CCOP(=O)(OCC)[C@H]1[C@H](c2ccc(F)cc2F)C(=O)N1C (relative stereo) [trans-10e, trans-N-methyl-3-(2,4-difluorophenyl)-4-(diethoxyphosphoryl)azetidin-2-one]	–	–	1	<0.5	< 4.00	< 4.00	4.29	4.17	< 4.00	4.29	–	–	–	–	–
CCOP(=O)(OCC)[C@@H]1[C@H](c2ccccc2F)C(=O)N1C (relative stereo) [cis-10b, cis-N-methyl-3-(2-fluorophenyl)-4-(diethoxyphosphoryl)azetidin-2-one]	–	–	1	0.5	< 4.00	< 4.00	4.84	4.34	< 4.00	4.50	–	–	–	–	–
CCOP(=O)(OCC)[C@H]1[C@H](c2ccc(F)cc2)C(=O)N1C (relative stereo) [trans-10d, trans-N-methyl-3-(4-fluorophenyl)-4-(diethoxyphosphoryl)azetidin-2-one]	–	–	1	0.5	< 4.00	< 4.00	4.24	4.38	< 4.00	4.34	–	–	–	–	–
CC(=O)O[C@@]12CO[C@@H]1C[C@H](O)[C@@]1(C)C(=O)[C@H](O)C3=C(C)[C@@H](OC(=O)[C@H](O)[C@@H](NC(=O)OC(C)(C)C)c4ccccc4)C[C@@](O)([C@@H](OC(=O)c4ccccc4)[C@H]21)C3(C)C [Docetaxel, reference compound]	–	–	–	–	5.79	6.60	5.92	6.05	4.60	6.02	–	–	–	–	–
CCOP(=O)(OCC)[C@@H]1[C@H](c2ccccc2F)C(=O)N1Cc1ccccc1 (relative stereo) [cis-11b, cis-N-benzyl-3-(2-fluorophenyl)-4-(diethoxyphosphoryl)azetidin-2-one]	–	–	1	1	< 4.00	4.13	< 4.00	4.14	< 4.00	4.28	–	–	–	–	–
CCOP(=O)(OCC)[C@@H]1[C@H](c2ccccc2)C(=O)N1Cc1ccccc1 (relative stereo) [cis-11a, cis-N-benzyl-3-phenyl-4-(diethoxyphosphoryl)azetidin-2-one]	–	–	1–2	0.5	< 4.00	4.06	< 4.00	4.10	< 4.00	4.02	–	–	–	–	–
CCOP(=O)(OCC)[C@@H]1[C@H](c2ccc(F)cc2)C(=O)N1Cc1ccccc1 (relative stereo) [cis-11d, cis-N-benzyl-3-(4-fluorophenyl)-4-(diethoxyphosphoryl)azetidin-2-one]	–	–	1	1	< 4.00	4.27	4.21	4.34	< 4.00	4.44	–	–	–	–	–
CCOP(=O)(OCC)[C@H]1[C@H](c2ccccc2)C(=O)N1Cc1ccccc1 (relative stereo) [trans-11a, trans-N-benzyl-3-phenyl-4-(diethoxyphosphoryl)azetidin-2-one]	–	–	1–2	<0.5	< 4.00	< 4.00	4.20	4.29	< 4.00	4.21	–	–	–	–	–
CCOP(=O)(OCC)[C@H]1[C@H](c2cccc(F)c2)C(=O)N1C (relative stereo) [trans-10c, trans-N-methyl-3-(3-fluorophenyl)-4-(diethoxyphosphoryl)azetidin-2-one]	–	–	1	0.5	< 4.00	< 4.00	4.16	4.20	< 4.00	4.71	–	–	–	–	–
CCOP(=O)(OCC)[C@H]1[C@H](c2ccccc2F)C(=O)N1Cc1ccccc1 (relative stereo) [trans-11b, trans-N-benzyl-3-(2-fluorophenyl)-4-(diethoxyphosphoryl)azetidin-2-one]	–	–	1–2	<0.5	< 4.00	< 4.00	< 4.00	4.25	< 4.00	4.28	–	–	–	–	–
CCOP(=O)(OCC)[C@H]1[C@H](c2ccc(F)cc2)C(=O)N1Cc1ccccc1 (relative stereo) [trans-11d, trans-N-benzyl-3-(4-fluorophenyl)-4-(diethoxyphosphoryl)azetidin-2-one]	–	–	2	0.5	< 4.00	4.35	4.32	4.55	4.14	4.45	–	–	–	–	–
CN[C@@H]1C[C@H]2O[C@@](C)([C@@H]1OC)n1c3ccccc3c3c4c(c5c6ccccc6n2c5c31)C(=O)NC4 [Stauroporine, reference compound]	–	–	–	–	–	–	–	–	–	–	4.67	7.05	5.45	4.94	6.60
COc1cc([C@@H]2c3cc4c(cc3[C@@H](O[C@@H]3O[C@@H]5CO[C@@H](C)O[C@H]5[C@H](O)[C@H]3O)[C@H]3COC(=O)[C@H]23)OCO4)cc(OC)c1O [Etoposide, reference compound]	–	–	–	–	7.22	–	7.40	5.87	6.64	6.82	–	–	–	–	–

From paper PMC8348901, “Novel N-Substituted 3-Aryl-4-(diethoxyphosphoryl)azetidin-2-ones as Antibiotic Enhancers and Antiviral Agents in Search for a Successful Treatment of Complex Infections” (International Journal of Molecular Sciences, 2021)
